Results on 90 compounds are retold here after a melting point compilation (Tetko et al.; mined from patent text by program, amines drawn as free bases though some values may be those of a salt).

Structures are written as SMILES.

As for `COc1cccc2c(NCc3ccccc3C)nc(N)nc12`, the melting point was in the range of 274 to 275 °C. On to `CCCc1nc2c(N)nc3cccnc3c2n1CC1(O)CCC1`, for which the melting point was in the range of 226 to 227 °C. The same measure for `CCCCc1oc2ccccc2c1/C=N/OCCCOc1ccc(C(=O)O)c(O)c1`: 140 to 142 °C; for `NC(=S)C(F)(F)c1ccccc1`: 99 to 100 °C; for `CCOC1CN(Cc2cc(OC)c(OC)c(OC)c2)Cc2cc(OC)c(OCc3ccccc3)cc21` (stereo not given): 132 to 133 °C.

In turn, `CSC(C)(C)c1nnc(N)s1` yielded a melting point of 195 to 197 °C. Take `CCCn1c(=O)c2nc(C(CC)c3ccc(OCC(=O)NCCN)cc3)[nH]c2n(CCC)c1=O` (stereo not given): the melting point fell in the range of 139 to 140 °C. On to `COC(=S)c1c[nH]c(-c2ccccc2)c1`, for which the melting point lay in the range of 107 to 109 °C. With `O=c1ccc2ccc(CC3CO3)cc2o1` (stereo not given), the melting point fell in the range of 110 to 112 °C. In turn, `COc1cc(NC(=S)NC(=O)c2ccccc2)cc(-c2ccccc2)c1` registered a melting point of 149 °C. The compound `CCC(CC)/C(N)=C(\C#N)C(=O)Cl` registered a melting point of 102 °C. `O=C(NCCc1ccccn1)c1ccccc1-c1ccccc1CNS(=O)(=O)c1ccc(F)cc1` had a melting point of 130 °C.

`COCC(C)Nc1cc(-c2ccnc(Nc3cccc(Cl)c3)n2)cc(Cl)n1` (stereo not given): the melting point lay in the range of 128 to 129 °C. On to `N#CCCNC(=O)c1cccc(-c2cccc(Oc3cc(Cl)ccc3Cl)n2)c1`, for which the melting point was 149 to 150 °C.

In turn, `O=C(Nc1ccc2c(c1)OCO2)N1Cc2ccccc2C1` registered a melting point of 165 to 166 °C. `N#Cc1cc2c([nH]c1=O)CCc1ccccc1-2` displayed a melting point of 301 to 303 °C. Regarding `CC[C@H]1COC(=O)N1c1nc(-c2ccc(C#N)cc2)c(C#N)s1`, the melting point lay in the range of 201 to 203 °C. Compound `NC(=O)c1sccc1SSc1ccsc1C(N)=O` showed a melting point of 222 to 223 °C. The compound `Nc1ncnc2c1c(-c1ccc(Oc3cccc(CN4CCOCC4)c3)cc1)cn2C1CCOC1` (stereo not given) showed a melting point of 83 to 85 °C.

As to `CC(C)(C)NS(=O)(=O)c1ccccc1C(=O)CF`, the melting point came out at 126 °C.

Consider `COc1cc2ncc(CO)c(-c3ccnc(NN)c3)c2cc1OC`, for which the melting point is 217 to 220 °C. As for `CC(C)c1cccc(-c2c(Cl)ccc3c2C=C(C(=O)O)C(C(F)(F)F)O3)c1` (stereo not given), the melting point fell in the range of 184 to 186 °C. Turning to `Cc1noc(NC(=O)N2CCN(c3nccc(-c4cccc(F)c4F)n3)CC2)c1C`, the melting point lay in the range of 193 to 194 °C. `NC(=O)N(Cc1ccc(C(F)(F)F)c(N2CCCCC2)c1)c1cccc2c1CC(O)CC2` (stereo not given): the melting point amounted to 163 °C. The same measure for `CCCc1ccnc(C(=O)O)c1N`: 185 to 188 °C; for `CC(C)c1ccc(C2(O)C(=O)c3ccccc3C2=O)c(OC(=O)C=Cc2ccccc2)c1`: 95 to 97 °C. For the compound `Cc1scc2c1N(C(=O)NCCN1CCC(CCCC3CCCN3C)CC1)c1ccccc1NC2=O` (stereo not given), the melting point lay within 145 to 146 °C.

For `CON(C)C(=O)c1ccc(-c2cc(C(C)(C)C)c(O)c(C(C)(C)C)c2)cc1`, the melting point lay in the range of 176 to 177 °C. `Cc1ccc(N2CCN(C)CC2)c2c1CC[C@@H](NC(=O)c1ccc(Cl)cc1)C2` gave a melting point of 210 to 212 °C. Turning to `NC(=O)c1ccc(-c2ccc(O)cc2)cc1Cl`, the melting point fell in the range of 215 to 216 °C. For `C[C@@H]1S[C@@H](C(=O)O)Cc2cc3c(cc2C1=O)OCO3`, the melting point lay within 192 to 193 °C. The same measure for `Cc1cc(Br)cnc1NCCCNC1=NS(=O)N=C1NCc1ccc(F)cc1` (stereo not given): 125 to 126 °C. With `Cc1nc(-c2ccc(=O)[nH]c2C)cs1`, the melting point lay within 188 to 190 °C. Compound `COc1ccc2c(C)n[nH]c(=O)c2c1` came in with a melting point of 203 to 205 °C. Compound `C=CCOc1ccc(C(=C)C)cc1` had a melting point of 22 to 23 °C. Turning to `CC(c1oc2ccccc2c(=O)c1-c1cccc(F)c1)n1nc(-c2ccc(O)cc2)c2c(N)ncnc21` (stereo not given), the melting point was 244 to 247 °C. Compound `Cc1ccc(S(=O)(=O)Nc2cccc([N+](=O)[O-])c2N)cc1` yielded a melting point of 195 °C. Turning to `COC(=O)C1=C(C)NC(CC(=O)N2CCN(C3CC4CC(=O)CC4C3)CC2)=C(C(=O)OC)C1c1c(Cl)cccc1Cl` (stereo not given), the melting point is 145 to 155 °C. `CC(C)C(=O)CCC(=O)c1ccc(F)cc1` registered a melting point of 47 to 49 °C. Take `CC1(C)CC(CN2CCNC2=N[N+](=O)[O-])CO1` (stereo not given): the melting point fell in the range of 119 to 120 °C. On to `CC(=NO)c1ccc2c(c1)N(C(=O)OC(C)(C)C)CCC2`, for which the melting point lay within 134 to 137 °C. In the case of `O=C(c1ccccc1)C1CCCc2cccnc21` (stereo not given) it was 205 to 207 °C.

For `CCOC(=O)C1=C(C)NC(SCc2ccc(OC)cc2)=NC1c1cccc(C)c1` (stereo not given), the melting point was 65 to 67 °C. The same measure for `CCCCNC(=O)c1cnc2cccc(C)n2c1=O`: 127 to 130 °C. As for `COc1cc2c(cc1OC)CCNCC2`, the melting point lay in the range of 86 to 89 °C. In the case of `Cc1ccc(Oc2c(C)cc([N+](=O)[O-])c(C)c2Cl)c(C)c1`, the melting point was 78 to 80 °C. Consider `COc1cc2c(cc1OC)C(c1ccccc1OC)=NN=C(C)C2`, for which the melting point lay within 119 to 121 °C. The compound `COCSc1nccn1-c1cccc(C(=O)CC(=O)Nc2cc(-c3ccccc3F)ccc2NC(=O)OC(C)(C)C)c1` registered a melting point of 83 to 86 °C. In the case of `COCCn1cc2c(C3C(=O)Nc4ccc(Br)cc43)nc(NCCCN(C)C)nc2n1` (stereo not given) it was 297 to 298 °C.

`ON=C(c1ccc(CN2CCOCC2)cc1)c1cccc2nc(N[C@@H]3CCc4ccccc43)ccc12` gave a melting point of 167 °C. The same measure for `CCOC(=O)C(CC)=C(C)NC(=O)Nc1cc(OC(C)C)c(Cl)cc1F`: 112 to 114 °C. As for `C[C@@H](O)CNc1c(-c2ccc(F)cc2)c(=O)c1=O`, the melting point lay in the range of 235 to 237 °C.

The compound `O=C(O)Cc1c(C(=O)c2ccccc2)[nH]c2cc(Cl)cc(Cl)c12` returned a melting point of 214 to 218 °C. The compound `CN1C(=O)CN=C(c2ccccc2F)c2cc(NC(=O)N(CCOC(C)(C)C)Cc3ccccc3)ccc21` showed a melting point of 82 to 86 °C. As for `CC(C)(Cc1ccccc1)C(NC(=O)COc1ccccc1)Nc1c(Nc2cccnc2)c(=O)c1=O` (stereo not given), the melting point fell in the range of 249 to 250 °C. Consider `CN(C)c1ncccc1NC(=NC#N)NC1(c2ccccc2)CCC1`, for which the melting point fell in the range of 204 to 205 °C. In the case of `CC1Cc2c([nH]c3ccccc23)-c2nc3c(c(=O)n21)CCCC3` (stereo not given) it was 232 °C; in that of `CCCCCCCCCCCCCCCCOc1ccc(OCC(=O)Nc2cccc(CBr)c2)cc1`, 183 to 186 °C. For `C=C1CCC(C(O)C(N)=O)CC1` (stereo not given), the melting point fell in the range of 127 to 129 °C.

On to `CC(=O)OCC1CCn2c(c(C3=C(c4c[nH]c5ccccc45)C(=O)NC3=O)c3ccccc32)C1` (stereo not given), for which the melting point was in the range of 264 to 265 °C.

With `COC(=O)c1ccc([N+](=O)[O-])cc1S(=O)(=O)NC(C)(C)C`, the melting point was 122 to 124 °C. For the compound `O=C(Nc1cc(-c2ccnc3c(C(=O)c4cccs4)cnn23)ccc1F)OCCCl`, the melting point lay within 194 to 196 °C. Compound `COc1ccc(C(=O)Nc2ccc(-n3nc(C(F)(F)F)cc3C(F)(F)F)cc2)c(Cl)c1` came in with a melting point of 140 to 143 °C. The compound `COc1ccc(C(C#Cc2ccccc2)CC(C)=O)cc1OC1CCCC1` (racemic) had a melting point of 62 to 64 °C. In the case of `Brc1ccc(C2NCCS2)cc1` (stereo not given), the melting point lay in the range of 105 to 107 °C.

`CS(=O)c1ccc(-n2cnc3ccc(-c4nnc(N)o4)cc32)cc1` (stereo not given) yielded a melting point of 290 to 291 °C. In the case of `C[C@H]1[C@H](O[Si](C)(C)C(C)(C)C)[C@H](O)C(S(=O)(=O)c2ccccc2)=C[C@H](C)[C@H]1O[Si](C)(C)C(C)(C)C` it was 81 to 83 °C; in that of `N#Cc1c(N2CCN(C(=O)c3ccco3)CC2)c2cc(Cl)ccc2n(Cc2ccccc2)c1=O`, 221 °C; in that of `NCCc1c2n(c3ccccc13)CCNCC2`, 77 to 80 °C.

Consider `CC(=O)OCC1OC(n2cc(C(Br)=CBr)c(=O)[nH]c2=O)CC1OC(C)=O` (stereo not given), for which the melting point fell in the range of 79 to 81 °C. The same measure for `C=C[C@H]1C(=O)N(C)[C@H](C(C)(C)C)N1C(=O)c1ccccc1`: 169 to 171 °C; for `CS(=O)c1ccc(-c2nn(Cc3ccc(F)cc3)c(=O)cc2-c2ccc(F)cc2)cc1` (stereo not given): 198 °C. Compound `Cn1ccc2c1CCn1ncnc1C2=C1CCNCC1` came in with a melting point of 183 °C. `CCOC(=O)c1ccc(-c2[nH]nc3c2C(=O)c2c(NC(=O)NN4CCN(C)CC4)cccc2-3)s1` came in with a melting point of 249 °C. `N#Cc1cnn(-c2ccc(Cl)nn2)c1N` showed a melting point of 250 to 252 °C. On to `CCCCCCCCOc1ccc(-c2ccc(O)cc2)cc1`, for which the melting point came to 154 °C. `COc1ccccc1C1(Cl)C(=O)Nc2ccc(Cl)cc21` (stereo not given) came in with a melting point of 220 to 224 °C. For `O=C(O)c1cn(C2CC2)c2c(F)c(N3CCOC(CN4CCCCC4)C3)c(F)cc2c1=O` (stereo not given), the melting point lay in the range of 160 to 162 °C. With `CC(C)(C)N(CCc1ccccc1)NC(=O)c1ccccc1`, the melting point was in the range of 150 to 152 °C. The compound `CC(C)(C)OC(=O)N1CCC(c2ccc(N3C[C@H](CO)OC3=O)cc2F)CC1` yielded a melting point of 120 to 122 °C. Regarding `Fc1ccc(-c2cc(N3CCN(C4CC4)CC3)nc3c2CCCCCC3)cc1`, the melting point lay in the range of 125 to 128 °C. Take `C(=C\c1cc(/C=C/c2ccc3cc[nH]c3c2)[nH]n1)/c1ccc(N2CCCCC2)cc1`: the melting point fell in the range of 189 to 191 °C. On to `C=CCC1=C(Cl)C(=O)c2ccccc2C1=O`, for which the melting point lay in the range of 69 to 70 °C. `Cc1ccc(C2(CC(=O)O)CNC(=O)C2)c(C)c1` (stereo not given) registered a melting point of 225 to 230 °C. In turn, `Cc1cccc2c1NCC(=O)N2` had a melting point of 168 to 171 °C. As to `COC1=C(Cc2ccc3ccccc3c2)C(=O)CC1`, the melting point was 70 to 71 °C. The same measure for `CCc1cn(C2CC(O)C(CCC(=O)C(C)Oc3ccc(Cl)cc3Cl)O2)c(=O)[nH]c1=O` (mixture of isomers): 157 to 159 °C; for `NC(=O)c1cc(C(=O)O)c2c(c1)C(C(=O)O)CCN2` (stereo not given): 265 to 266 °C.

The compound `COC(=O)CCCC#Cc1cc(Cl)ccc1NS(=O)(=O)c1ccc2c(c1)CCC(=O)N2` gave a melting point of 53 to 57 °C. Compound `COC(CN(C)C(=O)Nc1nnc(C(C)Oc2ccccc2)s1)OC` (stereo not given) had a melting point of 117 to 121 °C.
